According to US7981875B2, “2″ oxo-voruscharin and derivatives thereof” (priority 2002, dated 2011):
Where two headings read alike, the source gives them in different places.

Tests used:
A549 = assay: MTT test, overall cell growth; type: cell-based, human; settings: 72 hours of incubation
Protocol: (§1) In order to characterize the in vitro activities of the compounds according to the invention, MTT tests were carried out. The MTT test, which is a well-known test in the art, is an indirect technique that rapidly measures, i.e. within 5 days, the effect of a given product on the overall cell growth. This test measures the number of metabolically active living cells that are able to transform the MTT product (3-(4,5-dimethylthiazol-2-yl)-2,5 diphenyl tetrazolium bromide), having a yellowish color, to the blue product formazan dye by mitochondrial reduction. The amount of formazan obtained at the end of the experiment is measured with a spectrophotometer and is directly proportional to the number of living cells. Determination of the optical density enables a quantitative measurement of the effect of the investigated compounds as compared to the control condition (untreated cells) and to compare it to other reference compound. In the following examples different compounds according to the invention were tested and compared to the reference compound being uscharin.
(§2) Six human cancer cell lines, described in Table C, were tested in the presence of compounds according to the invention. These cell lines covered four histological cancer types, being Glioma, colon, lung and bladder cancer. The cells were allowed to grow in 96-well micro wells with a flat bottom with an amount of 100 μl of cell suspension per well in reason to 4000 cells/well depending on cell type. Each cell line was seeded in its own cell culture medium (Table C).
(§3) After a 24-hour period of incubation at 37° C., the culture medium is replaced by 100 μl of fresh medium in which the compound to be tested has been dissolved at different required concentrations. Different compounds were tested at 10^−9 M, 5×10^−9 M, 10^−8 M, 5×10^−8 M, 10^−7 M, 5×10^−7 M, 10^−6 M, 5×10^−6 M et 10^−5 M. Each experimental condition is carried out in hexaplicate. The compounds tested are 2″ oxo-voruscharin, and compounds B, C, D, E, H and I represented in Table B above.
(§4) After 72 hours of incubation at 37° C. with the compound (experimental conditions) or without the compound (control condition), the medium was replaced by 100 μl MTT at the concentration of 1 mg/ml dissolved in RPMI. The micro wells were subsequently incubated during 3 hours at 37° C. and centrifuged at 400 g during 10 minutes. The MTT was removed and formazan crystals formed, were dissolved in 100 μl DMSO. The micro wells were shaken for 5 minutes and read on a spectrophotometer at the wavelengths of 570 nm corresponding to the maximum formazan absorbance wavelength, and of 630 nm, which is the background noise wavelength.
(§5) For each experimental condition, the mean OD associated with the SEM (standard error of the mean) for each condition (6 wells) was calculated. The percentage of remaining living cells in comparison with the control was calculated. Results of these experiments are represented in FIGS. 2 to 8.

J82 = assay: MTT test, overall cell growth; type: cell-based, human
Protocol: as §1, §2, §3, §4, §5

Hs683 = assay: MTT test, overall cell growth; type: cell-based, human
Protocol: as §1, §2, §3, §4, §5

U-373 MG = assay: MTT test, overall cell growth; type: cell-based, human; settings: U-373, MTT, 72 hours of incubation
Protocol: as §1, §2, §3, §4, §5

LoVo = assay: MTT test, overall cell growth; type: cell-based, human; settings: 72 hours of incubation
Protocol: as §1, §2, §3, §4, §5

HCT-15 = assay: MTT test, overall cell growth; type: cell-based, human
Protocol: as §1, §2, §3, §4, §5

[1] = Maximum Tolerated Dose in healthy mice; type: in vivo; settings: single administration in mice, healthy animals, 14 days post-injection
Protocol: The Maximum Tolerated Dose (MTD) of a given drug is defined as the maximum amount of a drug which can be administered acutely (i.e. in one i.p., i.v., s.c. or per os single dose) to healthy animals, i.e. animals not grafted with tumors. The survival times and weights of the animals are recorded up to 14 days post-injection. Five different doses of each drug are used for the determination of the MTD index. When the MTD index is higher than 160 mg/kg (i.p. administration) the drug is usually considered to be non-toxic, and the highest dose administered to tumor-bearing mice is MTD/2=80 mg/kg. Each experimental group was composed of 3 mice for the determination of the MTD index.

[2] = system: HCT-15 human cancer cells; assay: Cell cycle kinetics by flow cytometry (propidium iodide); type: cell-based; design: key to Effect on cell cycle kinetics, G0/G1 / Effect on cell cycle kinetics, S / Effect on cell cycle kinetics, G2/M: n.s. means no significant; ** means highly significant; *** very highly significant
Protocol: Cell lines were seeded in flasks (25 cm^2 area) containing 7 ml of culture medium. After 48 hours incubation at 37° C. the cell culture medium was replaced by a fresh medium in which the substance to be tested had been dissolved at the different concentrations required. Uscharin and 2″ oxo-voruscharin were tested at concentrations, which kill 50% and 30% of the cell population, represented by the IC50 and IC30 values, respectively. After 24 or 72 hours of treatment the cells were harvested in suspension, washed in Phosphate Buffer Saline (PBS) at 4° C. and permeabilized with 70% ethanol (at 4° C.) overnight at −20° C. The cells were then washed with PBS and incubated with propidium iodide solution (80 μg/ml) for 30 minutes at 37° C. and afterward at 4° C. overnight. Ribonuclease A (3% V/V) was added to the PI solution to break doubled-stranded RNA. The portrait of the cell cycle was established for each sample. Software incorporated into the flow cytometer was used to define precisely the percentage of cells in the different cell cycle phases. Each cell cycle phase was reported in terms of peak surface and calculated as a percentage. The surface of the entire cell cycle was 100%. Each experiment was carried out 3 times. The mean percentage of each different phase and the standard error of the related mean were calculated. Each cell cycle phase of a given condition was compared with the same cell cycle phase of control. The non-treated cells constituted control.
Uscharin and 2″ oxo-voruscharin are highly toxic to human tumor cell lines. The concentrations used in the flow cytometry experiments were chosen in accordance with the MTT results (example 2). Three human cancer cell lines, Hs683, J82, and HCT-15 were tested and doses that killed 30 and 50 percent of the cells were applied to investigate whether uscharin and 2″ oxo-voruscharin promoted an accumulation in one of the cell cycle phases when the cell cultures were treated for 24 or 72 hours with increasing concentrations of the compounds. The IC50 and IC30 values for uscharin and 2″ oxo-voruscharin corresponding to the three tested cell lines are represented in Table E.

`CC1CC2(NC(=O)CS2)C2(O)OC3CC4(CO)C(CCC5C4CCC4(C)C(C6=CC(=O)OC6)CCC54O)CC3OC2O1` (stereo not drawn) [Compound B] gave an IC50 (A549) of 10 nM, an IC50 (J82; J82, MTT, 72 hours of incubation, read-out: IC50 value) of 5000 to 10000 nM and an IC50 (Hs683; Hs683, MTT, 72 hours of incubation, read-out: IC50 value) of 1000 to 5000 nM. The IC50 (U-373 MG) was 10 to 50 nM, the IC50 (LoVo) was 1 to 5 nM and the IC50 (HCT-15; HCT-15, MTT, 72 hours of incubation, read-out: IC50 value) was 10 to 50 nM. For the same molecule, the MTD index [1] was 80 mg/kg.

Molecule `CC1CC2(NC(=O)CS2)C2(O)OC3CC4(C=O)C(CCC5C4CCC4(C)C(C6=CC(=O)OC6)CCC54O)CC3OC2O1` (stereo not drawn) [2″oxo-voruscharin, 2″ oxo-voruscharin] has an IC50 (A549; Homo sapiens) of 10 to 50 nM, an IC50 (J82; Homo sapiens, J82, MTT, 72 hours of incubation, read-out: IC50 value) greater than 10000 nM and an IC50 (J82; Homo sapiens, J82, Table E, concentration used for flow cytometry, chosen in accordance with MTT results, read-out: IC50) of 4100 nM. It also gave an IC30 (J82; J82, Table E, concentration which kills 30% of the cell population) of 1700 nM, an IC50 (Hs683; Homo sapiens, Hs 683, Hs683, MTT, 72 hours of incubation, read-out: IC50 value) of 1 to 5 nM and an IC50 (Hs683; Homo sapiens, Hs 683, Hs683, Table E, concentration used for flow cytometry, chosen in accordance with MTT results, read-out: IC50) of 170 nM. For the same molecule, the IC30 (Hs683; Hs683, Table E, concentration which kills 30% of the cell population) was 8.3 nM, the IC50 (U-373 MG; Homo sapiens, U373 MG) was 10 to 50 nM and the IC50 (LoVo; Homo sapiens) was 5 to 10 nM. It also gave an IC30 (HCT-15; HCT-15, Table E, concentration which kills 30% of the cell population) of 4.1 nM, an IC50 (HCT-15; Homo sapiens, HCT-15, MTT, 72 hours of incubation, read-out: IC50 value) of 10 to 50 nM and an IC50 (HCT-15; Homo sapiens, HCT-15, Table E, concentration used for flow cytometry, chosen in accordance with MTT results, read-out: IC50) of 12 nM. The “Effect on cell cycle kinetics, G0/G1” value ([2]; HCT-15, 24 h) was “n.s”, the “Effect on cell cycle kinetics, G2/M” value ([2]; HCT-15, 24 h) was “n.s” and the “Effect on cell cycle kinetics, S” value ([2]; HCT-15, 24 h) was “n.s”. For the same molecule, the “Effect on cell cycle kinetics, G0/G1” value ([2]; HCT-15, 72 h) was “n.s”, the “Effect on cell cycle kinetics, G2/M” value ([2]; HCT-15, 72 h) was “n.s” and the “Effect on cell cycle kinetics, S” value ([2]; HCT-15, 72 h) was “***”. The “cell cycle, S-phase” value ([2]; HCT-15, 72 hours, highest concentration tested (4.3×10^−8 M uscharin, 1.2×10^−8 M 2″oxo-voruscharin)) was “accumulation in S-phase” and the MTD index [1] was 20 mg/kg.
